In patent US4529549A, “Spergualin-related compounds and process for the preparation thereof” (Zaidan Hojin Biseibutsu Kagaku Kenkyu Kai, priority 1982, dated 1985):
Values after ≈ are worked out from the molar mass of the structure shown. Structures can show the parent of a compound that is named as a salt. Where two headings read alike, the source gives them in different places.

Tests used:
[1] = Stability of the compounds in aqueous solutions (HPLC residual content); type: physicochemical; details: for remaining at 12 h / remaining at 24 h / remaining at 48 h / remaining at 72 h / remaining at 120 h / remaining at 168 h: water; for Residual content (%) of the compound in an aqueous solution: 0.5 (w/w)% in water, 40°±1° C., initial content = 100%
Experimental: Each of the compounds of this invention was dissolved in water to a concentration of 0.5 (w/w)%. The aqueous solution was maintained at 40°±1° C., and sampled at certain time intervals. Each sample was subjected to high-performance liquid chromatographic analysis to measure the area of the peak of the compound at each sampling time, and to calculate the ratio of the area of the peak after the indicated period of time to that at the first sampling time. The results of the calculation were used to determine the contents (%) of the compound of this invention in the aqueous solution after the indicated periods of time, with the initial content of said compound set at 100%.

Bacillus subtilis PCI219 = assay: Growth-inhibiting action on Bacillus subtilis (agar plate MIC); type: cell-based; details: nutrient agar, 20 hours at 37° C.
Experimental: Each of the compounds of this invention was dissolved in nutrient agar media to final concentrations of 100, 50, 25, 12.5, 6.25, 3.13 and 1.56 μg/ml, to prepare agar plates for testing. Bacillus subtilis PCI219 was adjusted to a content of 1×10^6 viable cells/ml, in a culture broth, and a loopful of the broth was applied onto the agar plates. The plates were incubated for 20 hours at 37° C. under stationary conditions, and observed for the formation of colonies of Bacillus subtilis. The lowest of the concentrations at which no colonies were formed was taken to be minimum inhibitory concentration (MIC).

[2] = tested on: mouse leukemia L1210 cells; assay: In vitro proliferation-inhibiting action on mouse leukemia L1210 cells; type: cell-based; details: 48 hours at 37° C.
Experimental: Leukemia L1210 cells (1×10^5 /0.2 ml) were transplanted to female DBA/2 mice intraperitoneally. four days later, the ascitic fluid was collected and centrifuged to obtain proliferated L1210 cells. The L1210 cells collected were added to RPMI1640 medium containing bovine fetal serum and 2-mercaptoethanol, to obtain a suspension of L1210 cells having a final concentration of 5×10^4 cells/0.9 ml. Each of the compounds of this invention was dissolved in said culture medium to prepare solutions with final concentrations ranging from 0.062 to 100 μg/ml. 0.9 ml of the L1210 cell suspension and 0.1 ml of each test solution were mixed in petri dishes, and incubated for 48 hours at 37° C. in an incubator under an atmosphere of carbon dioxide gas. The number of L1210 cells was counted before and after the incubation, and that concentration of the compound which inhibited the proliferation of L1210 cells by 50% of the control's proliferation was determined (IC50).

[3] = Bacillus subtilis, PCI219, read-out: MIC

remaining at 12 h [1] [%]	remaining at 24 h [1] [%]	remaining at 48 h [1] [%]	remaining at 72 h [1] [%]	remaining at 120 h [1] [%]	remaining at 168 h [1] [%]	MIC (Bacillus subtilis PCI219; [3]) [µg/mL]	IC50 [2] [µg/mL]	Residual content (%) of the compound in an aqueous solution ([1]; 12 hr) [%]	Residual content (%) of the compound in an aqueous solution ([1]; 24 hr) [%]	Residual content (%) of the compound in an aqueous solution ([1]; 48 hr) [%]	Residual content (%) of the compound in an aqueous solution ([1]; 72 hr) [%]	Residual content (%) of the compound in an aqueous solution ([1]; 120 hr) [%]	Residual content (%) of the compound in an aqueous solution ([1]; 168 hr) [%]	MIC (Bacillus subtilis PCI219) [µg/mL]	SMILES
100	99.4	99.7	99.9	100	99.7	12.5	1.5								N=C(N)NCCCCCCC(=O)N[C@@H](CCCNC(=N)N)C(=O)NCCCCNCCCN [Compound 12, 10-[N--(7-guanidinoheptanoyl)-L-arginyl]-1,5,10-triazadecane trihydrochloride]
101	100	100	99.7	99.6	100	12.5	3.6								N=C(N)NCCCCCCC(=O)N[C@H](CO)C(=O)NCCCCNCCCN [Compound 4, 10-[N--(7-guanidinoheptanoyl)-D-seryl]-1,5,10-triazadecane trihydrochloride]
99.2	99.8	99.1	100	99.6	100	100	180								C[C@@H](O)[C@H](NC(=O)CCCCCCNC(=N)N)C(=O)NCCCCNCCCN [Compound 15, 10-[N--(7-guanidinoheptanoyl)-L-threonyl]-1,5,10-triazadecane trihydrochloride]
99.9	99.4	99.8	100	99.8	99.9	> 100	130								N=C(N)NCCCCCCC(=O)N[C@@H](CC(=O)O)C(=O)NCCCCNCCCN [Compound 10, 10-[N--(7-guanidinoheptanoyl)-L-asparthyl]-1,5,10-triazadecane trihydrochloride]
99.3	99.5	100	99.6	99.7	100	6.25	0.95								N=C(N)NCCCC[C@H](O)CC(=O)N[C@@H](CO)C(=O)NCCCCNCCCN [Compound 3, 10-[N--(7-guanidino-3(S)--hydroxyheptanoyl)-L-seryl]-1,5,10-triazadecane trihydrochloride]
99.7	99.9	99.8	100	100	99.9	> 100	70								CC(C)C[C@H](NC(=O)CCCCCCNC(=N)N)C(=O)NCCCCNCCCN [Compound 9, 10-[N--(7-guanidinoheptanoyl)-L-leucyl]-1,5,10-triazadecane trihydrochloride]
								99.5	99.7	101	99.5	100	99.3	> 100	Cl.Cl.Cl.N=C(N)NCCCCCCC(=O)N[C@@H](CCC(N)=O)C(=O)NCCCCNCCCN [Compound 11, 10-[N--(7-guanidinoheptanoyl)-L-glutaminyl]-1,5,10-triazadecane trihydrochloride]
100	100	99.6	99.6	99.9	100	25	0.84								N=C(N)NCCCCCCC(=O)NCCC(=O)NCCCCNCCCN [Compound 6, 10-[N--(7-guanidinoheptanoyl)-β-alanyl]-1,5,10-triazadecane trihydrochloride]
100	99.5	99.7	99.3	99.7	99.5	100 (≈ 241 µM)	150 (≈ 361 µM)								N=C(N)NCCCCCCC(=O)NC(CCO)C(=O)NCCCCNCCCN (racemic) [Compound 18]
99.8	99.5	99.9	100	101	100	> 100	2.8								N=C(N)NCCCCCCC(=O)N[C@@H](Cc1ccccc1)C(=O)NCCCCNCCCN [Compound 13, 10-[N--(7-guanidinoheptanoyl)-L-phenylalanyl]-1,5,10-triazadecane trihydrochloride]
99.9	100	99.8	99.9	100	99.8	25	1.9								N=C(N)NCCCCCCC(=O)NCCCC(=O)NCCCCNCCCN [Compound 7, 10-[N--(7-guanidinoheptanoyl)-γ-aminobutanoyl]-1,5,10-triazadecane trihydrochloride]
99.8	99.8	100	99.6	99	99.9	25	37								C[C@H](NC(=O)CCCCCCNC(=N)N)C(=O)NCCCCNCCCN [Compound 5, 10-[N--(7-guanidinoheptanoyl)-L-alanyl]-1,5,10-triazadecane trihydrochloride]
99.6	100	99.8	99.7	100	99.3	6.25	11.3								N=C(N)NCCCCCCCCC(=O)N[C@@H](CO)C(=O)NCCCCNCCCN [Compound 17, 10-[N--(9-guanidinononanoyl)-L-seryl]-1,5,10-triazadecane trihydrochloride]
100	100	99.6	99.8	99.8	100	> 100									N=C(N)NCCCCCCC(=O)N1CCC[C@H]1C(=O)NCCCCNCCCN [Compound 8, 10-[N--(7-guanidinoheptanoyl)-L-prolyl]-1,5,10-triazadecane trihydrochloride]
99.1	99	99.6	99.5	99.9	99.6	50	51								N=C(N)NCCCCCCC(=O)N[C@@H](Cc1cnc[nH]1)C(=O)NCCCCNCCCN [Compound 14, 10-[N--(7-guanidinoheptanoyl)-L-histidyl]-1,5,10-triazadecane trihydrochloride]

SMILES	remaining at 12 h [1] [%]	remaining at 24 h [1] [%]	remaining at 48 h [1] [%]	remaining at 72 h [1] [%]	remaining at 120 h [1] [%]	remaining at 168 h [1] [%]	MIC (Bacillus subtilis PCI219; [3]) [µg/mL]	IC50 [2] [µg/mL]	Residual content (%) of the compound in an aqueous solution ([1]; 12 hr) [%]	Residual content (%) of the compound in an aqueous solution ([1]; 24 hr) [%]	Residual content (%) of the compound in an aqueous solution ([1]; 48 hr) [%]	Residual content (%) of the compound in an aqueous solution ([1]; 72 hr) [%]	Residual content (%) of the compound in an aqueous solution ([1]; 120 hr) [%]	Residual content (%) of the compound in an aqueous solution ([1]; 168 hr) [%]	MIC (Bacillus subtilis PCI219) [µg/mL]
CC(=O)O[C@@H](CCCCNC(=N)N)CC(=O)NCC(=O)NCCCCNCCCN [Compound 16, 10-[N--(7-guanidino-3(S)--acetoxyheptanoyl)-glycyl-1,5,10-triazadecanetrihydrochloride]	99.9	99.5	99.6	99.2	99.6	99.6	> 100								
